Data reported in PubChem BioAssay AID330 (DTP/NCI, 2004).
Values joined by “and” are separate entries in the source; they are usually repeats but may differ in a detail not shown here. Equal entries are not always repeated. Toxic doses and inconclusive results are not listed. Rule for the calls: active = survival T/C of 150% or more; inactive = T/C below 125% in these data.

Tested on: P388 leukemia ip, CD2F1 mice, survival T/C
Assay: NCI In Vivo Anticancer Drug Screen. Data for tumor model P388 Leukemia (intraperitoneal) in CD2F1 (CDF1) mice
Details: endpoint: median survival time, higher = longer survival
How it was run: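 Mice carrying the transplanted tumor received test compound or vehicle. Survival was recorded in each group, and the value is the treated-group measurement divided by that of the vehicle-treated control group.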

[1] = dose: 60.0 mg/kg/injection, schedule: Q01DX005 (ip), vehicle: saline with Tween-80
[2] = dose: 120.0 mg/kg/injection, schedule: Q01DX005 (ip), vehicle: saline with Tween-80
[3] = dose: 240.0 mg/kg/injection, schedule: Q01DX005 (ip), vehicle: saline with Tween-80
[4] = dose: 50.0 mg/kg/injection, schedule: Q01DX009 (ip), vehicle: saline
[5] = dose: 100.0 mg/kg/injection, schedule: Q01DX009 (ip), vehicle: saline
[6] = dose: 200.0 mg/kg/injection, schedule: Q01DX009 (ip), vehicle: saline
[7] = dose: 50.0 mg/kg/injection, schedule: Q01DX009 (ip), vehicle: saline with Tween-80

Measured: T/C

CC(=O)CC(c1ccccc1)c1c(O)c2ccccc2oc1=O (configuration not stated)
inactive: dose: 0.02 mg/kg/injection, schedule: Q01DX009 (ip), vehicle: Klucel (hydroxypropylcellulose) (HPC) 93 % of control and 96 % of control | dose: 0.05 mg/kg/injection, schedule: Q01DX009 (ip), vehicle: Klucel (hydroxypropylcellulose) (HPC) 100 % of control | dose: 0.05 mg/kg/injection, schedule: Q01DX009 (ip), vehicle: saline 99 % of control | dose: 0.06 mg/kg/injection, schedule: Q01DX009 (ip), vehicle: other 99 % of control | dose: 0.1 mg/kg/injection, schedule: Q01DX009 (ip), vehicle: Klucel (hydroxypropylcellulose) (HPC) 96 % of control and 97 % of control | dose: 0.1 mg/kg/injection, schedule: Q01DX009 (ip), vehicle: saline 96 % of control | dose: 0.13 mg/kg/injection, schedule: Q01DX009 (ip), vehicle: other 92 % of control | dose: 0.2 mg/kg/injection, schedule: Q01DX009 (ip), vehicle: Klucel (hydroxypropylcellulose) (HPC) 95 % of control and 96 % of control | dose: 0.2 mg/kg/injection, schedule: Q01DX009 (ip), vehicle: saline 109 % of control and 92 % of control | dose: 0.25 mg/kg/injection, schedule: Q01DX009 (ip), vehicle: other 95 % of control | dose: 0.4 mg/kg/injection, schedule: Q01DX009 (ip), vehicle: Klucel (hydroxypropylcellulose) (HPC) 91 % of control and 95 % of control | dose: 0.4 mg/kg/injection, schedule: Q01DX009 (ip), vehicle: saline 98 % of control and 90 % of control | dose: 0.5 mg/kg/injection, schedule: Q01DX009 (ip), vehicle: saline with Tween-80 97 % of control | dose: 0.8 mg/kg/injection, schedule: Q01DX009 (ip), vehicle: saline 101 % of control and 91 % of control | dose: 1.0 mg/kg/injection, schedule: Q01DX001 (ip), vehicle: saline + alcohol 101 % of control | dose: 1.0 mg/kg/injection, schedule: Q01DX009 (ip), vehicle: saline with Tween-80 93 % of control | dose: 2.0 mg/kg/injection, schedule: Q01DX001 (ip), vehicle: saline + alcohol 101 % of control | dose: 4.0 mg/kg/injection, schedule: Q01DX001 (ip), vehicle: saline + alcohol 95 % of control | dose: 4.0 mg/kg/injection, schedule: Q04HX002 (ip), vehicle: saline with Tween-80 96 % of control | dose: 8.0 mg/kg/injection, schedule: Q04HX002 (ip), vehicle: saline with Tween-80 99 % of control and 86 % of control | dose: 16.0 mg/kg/injection, schedule: Q04HX002 (ip), vehicle: saline with Tween-80 106 % of control and 96 % of control

COc1ccc2nc(C)cc(N/N=C/c3cccnc3)c2c1
inactive: dose: 6.25 mg/kg/injection, schedule: Q01DX009 (ip), vehicle: Klucel (hydroxypropylcellulose) (HPC) 101 % of control | dose: 12.5 mg/kg/injection, schedule: Q01DX009 (ip), vehicle: Klucel (hydroxypropylcellulose) (HPC) 104 % of control | dose: 25.0 mg/kg/injection, schedule: Q01DX009 (ip), vehicle: Klucel (hydroxypropylcellulose) (HPC) 113 % of control

Cc1ccc(N=c2oc(-c3ccccc3)cs2)cc1
inactive: dose: 100.0 mg/kg/injection, schedule: Q01DX001 (ip), vehicle: saline with Tween-80 90 % of control | dose: 200.0 mg/kg/injection, schedule: Q01DX001 (ip), vehicle: saline with Tween-80 89 % of control | dose: 400.0 mg/kg/injection, schedule: Q01DX001 (ip), vehicle: saline with Tween-80 88 % of control

COCCCOC(=O)NCCCCC(N)C(=O)O (configuration not stated)
inactive: dose: 50.0 mg/kg/injection, schedule: Q01DX005 (ip), vehicle: saline 98 % of control | dose: 100.0 mg/kg/injection, schedule: Q01DX005 (ip), vehicle: saline 106 % of control | dose: 200.0 mg/kg/injection, schedule: Q01DX005 (ip), vehicle: saline 100 % of control

COc1ccc(/C=N\Nc2cc(C)nc3ccc(C4CCCCC4)cc23)c2ccccc12
inactive: [1] 99 % of control | [2] 104 % of control | [3] 93 % of control

COc1cc2c(cc1OC)C1Cc3ccc(OC)c(OC)c3CN1CC2 (configuration not stated)
inactive: [4] 104 % of control | dose: 60.0 mg/kg/injection, schedule: Q01DX005 (ip), vehicle: Klucel (hydroxypropylcellulose) (HPC) 100 % of control | [5] 101 % of control | dose: 120.0 mg/kg/injection, schedule: Q01DX005 (ip), vehicle: Klucel (hydroxypropylcellulose) (HPC) 109 % of control | [6] 99 % of control | dose: 240.0 mg/kg/injection, schedule: Q01DX005 (ip), vehicle: Klucel (hydroxypropylcellulose) (HPC) 108 % of control

CNc1cccc2c1C(=O)c1ccccc1C2=O
inactive: dose: 50.0 mg/kg/injection, schedule: Q04DX003 (ip), vehicle: saline with Tween-80 93 % of control | dose: 100.0 mg/kg/injection, schedule: Q04DX003 (ip), vehicle: saline with Tween-80 91 % of control | dose: 200.0 mg/kg/injection, schedule: Q04DX003 (ip), vehicle: saline with Tween-80 97 % of control | dose: 400.0 mg/kg/injection, schedule: Q04DX003 (ip), vehicle: saline with Tween-80 90 % of control

CCN(CC)CCNC1=C(Cl)C(=O)c2ccccc2C1=O
inactive: dose: 1.56 mg/kg/injection, schedule: Q01DX009 (ip), vehicle: saline 95 % of control | dose: 3.13 mg/kg/injection, schedule: Q01DX009 (ip), vehicle: saline 96 % of control | dose: 6.25 mg/kg/injection, schedule: Q01DX009 (ip), vehicle: saline 96 % of control | dose: 12.5 mg/kg/injection, schedule: Q01DX009 (ip), vehicle: distilled water + Tween-80 100 % of control | dose: 12.5 mg/kg/injection, schedule: Q01DX009 (ip), vehicle: saline 101 % of control

O=C1CC(Cl)(CS(F)(F)(F)(F)F)O1 (configuration not stated)
inactive: dose: 12.5 mg/kg/injection, schedule: Q01DX005 (ip), vehicle: saline + alcohol 100 % of control | dose: 12.5 mg/kg/injection, schedule: Q01DX005 (ip), vehicle: saline with Tween-80 104 % of control | dose: 25.0 mg/kg/injection, schedule: Q01DX005 (ip), vehicle: saline + alcohol 103 % of control | dose: 25.0 mg/kg/injection, schedule: Q01DX005 (ip), vehicle: saline with Tween-80 109 % of control | dose: 50.0 mg/kg/injection, schedule: Q01DX005 (ip), vehicle: saline + alcohol 99 % of control | dose: 50.0 mg/kg/injection, schedule: Q01DX005 (ip), vehicle: saline with Tween-80 110 % of control and 114 % of control

CCC[N+]1([O-])CCOCC1
inactive: [4] 102 % of control | [5] 100 % of control | [6] 94 % of control

C/C(=C\c1cc2cc(C(=N)N)ccc2o1)c1cc2cc(C(=N)N)ccc2o1
active: dose: 400.0 mg/kg/injection, schedule: Q04DX002 (ip), vehicle: saline 159 % of control

O=C(O)c1nn(-c2ccccc2)c2c1CS(=O)(=O)c1ccccc1-2
inactive: dose: 100.0 mg/kg/injection, schedule: Q04DX002 (ip), vehicle: saline with Tween-80 100 % of control | dose: 200.0 mg/kg/injection, schedule: Q04DX002 (ip), vehicle: saline with Tween-80 106 % of control | dose: 400.0 mg/kg/injection, schedule: Q04DX002 (ip), vehicle: saline with Tween-80 104 % of control

CCCC/C=C/C=C/C=C/CCCCCCCC(=O)OC(COC(=O)CCCCCCC/C=C/C1C=CC(CCCC)C(C(=O)O)C1C(=O)O)COC(=O)CCCCCCC/C=C/C1C=CC(CCCC)C(C(=O)O)C1C(=O)O (configuration not stated)
inactive: dose: 50.0 mg/kg/injection, schedule: Q01DX009 (ip), vehicle: Klucel (hydroxypropylcellulose) (HPC) 101 % of control | dose: 100.0 mg/kg/injection, schedule: Q01DX009 (ip), vehicle: Klucel (hydroxypropylcellulose) (HPC) 111 % of control | dose: 200.0 mg/kg/injection, schedule: Q01DX009 (ip), vehicle: Klucel (hydroxypropylcellulose) (HPC) 108 % of control

COc1cccc2c1C(=O)c1c(O)c3c(c(O)c1C2=O)C[C@@](O)(C(C)=O)CC3OC1CC(NC(=O)CCN)C(O)C(C)O1 (some centres not stated)
inactive: dose: 6.25 mg/kg/injection, schedule: Q04DX003 (ip), vehicle: saline 97 % of control | dose: 12.5 mg/kg/injection, schedule: Q04DX003 (ip), vehicle: saline 100 % of control | dose: 25.0 mg/kg/injection, schedule: Q04DX003 (ip), vehicle: saline 103 % of control | dose: 50.0 mg/kg/injection, schedule: Q04DX003 (ip), vehicle: saline 97 % of control

COc1ccc(OC)c(C(=O)c2cccc(C(=O)c3cc(OC)ccc3OC)n2)c1
inactive: [1] 99 % of control | [2] 109 % of control | [3] 119 % of control

CCCCOCN(CCCc1ccccc1)COCCCC
inactive: dose: 12.5 mg/kg/injection, schedule: Q01DX009 (ip), vehicle: saline with Tween-80 89 % of control | dose: 25.0 mg/kg/injection, schedule: Q01DX009 (ip), vehicle: saline with Tween-80 102 % of control | [7] 118 % of control

CN1NC(C)(c2ccccn2)SC1=S (configuration not stated)
inactive: [7] 98 % of control | dose: 100.0 mg/kg/injection, schedule: Q01DX009 (ip), vehicle: saline with Tween-80 91 % of control | dose: 200.0 mg/kg/injection, schedule: Q01DX009 (ip), vehicle: saline with Tween-80 90 % of control
